Assay results reported in PMC5653232 (Cell reports, 2017).

Experiments:
Assay type in all cases: binding
CHD3 PHD2 = CHD3 PHD2 (Homo sapiens, UniProt Q12873); assay: 1H,15N HSQC NMR titration, CHD3 PHD2; details: compared with unmodified H3; protein:peptide ratio 1:0.5; 298 K
CHD3 PHD1 = CHD3 PHD1 (Homo sapiens, UniProt Q12873); assay: 1H,15N HSQC NMR titration, CHD3 PHD1; details: compared with unmodified H3; protein:peptide ratio 1:0.5; 298 K
CHD3 PHD1/2 = assay: 1H,15N HSQC NMR titration, linked CHD3 PHD1/2; details: 15N-labelled PHD1/2, 298 K, H3 peptides aa 1–12
[1] = tested on: biotinylated histone peptides (residues 1–20 of H3); assay: Pull-down of GST-CHD3 PHDs with biotinylated histone H3 peptides, Western blot; details: blots overexposed to the same degree as PHD1/2; 2 h at 4 °C, pH 8.0

Row | effect of modification on binding by NMR CSPs, PHD2 (CHD3 PHD2) | effect of modification on binding by NMR CSPs, PHD1 (CHD3 PHD1) | Substance | chemical shift perturbations, linked PHD1/2 (CHD3 PHD1/2) | pull-down association of individual PHD1 and PHD2 with histone peptides [1]
1 | strong inhibitory effects | strong inhibitory effects | H3K4me3: histone H3 peptide (aa 1–12) with the K4me3 modification | CSPs consistent with a much weaker association | –
2 | – | – | PHD1: PHD1 (373–427) of CHD3 (GYETDHQDYCEVCQQGGEIILCDTCPRAYHLVCLDPELDRAPEGKWSCPHCEKEG; left off: GST, end not stated, cleaved) | – | barely detectable
3 | – | – | PHD2: PHD2 (454–508) of CHD3 (DHMEYCRVCKDGGELLCCDACISSYHIHCLNPPLPDIPNGEWLCPRCTCPVLKGR; left off: GST, end not stated, cleaved) | – | barely detectable
